# Assay results as given in patent publication US20250346642A1, “NEW SPLICE VARIANT ISOFORM OF VEGF” (CENTRE NATIONAL DE LA RECHERCHE SCIENTIFIQUE (CNRS), priority 2020, published 2025).
# Like-named read-outs stand apart in the source and are kept apart here.
# T1: VEGFR3 (UniProt P35916 25-776, limits assumed)
# T1 sequence (looked up): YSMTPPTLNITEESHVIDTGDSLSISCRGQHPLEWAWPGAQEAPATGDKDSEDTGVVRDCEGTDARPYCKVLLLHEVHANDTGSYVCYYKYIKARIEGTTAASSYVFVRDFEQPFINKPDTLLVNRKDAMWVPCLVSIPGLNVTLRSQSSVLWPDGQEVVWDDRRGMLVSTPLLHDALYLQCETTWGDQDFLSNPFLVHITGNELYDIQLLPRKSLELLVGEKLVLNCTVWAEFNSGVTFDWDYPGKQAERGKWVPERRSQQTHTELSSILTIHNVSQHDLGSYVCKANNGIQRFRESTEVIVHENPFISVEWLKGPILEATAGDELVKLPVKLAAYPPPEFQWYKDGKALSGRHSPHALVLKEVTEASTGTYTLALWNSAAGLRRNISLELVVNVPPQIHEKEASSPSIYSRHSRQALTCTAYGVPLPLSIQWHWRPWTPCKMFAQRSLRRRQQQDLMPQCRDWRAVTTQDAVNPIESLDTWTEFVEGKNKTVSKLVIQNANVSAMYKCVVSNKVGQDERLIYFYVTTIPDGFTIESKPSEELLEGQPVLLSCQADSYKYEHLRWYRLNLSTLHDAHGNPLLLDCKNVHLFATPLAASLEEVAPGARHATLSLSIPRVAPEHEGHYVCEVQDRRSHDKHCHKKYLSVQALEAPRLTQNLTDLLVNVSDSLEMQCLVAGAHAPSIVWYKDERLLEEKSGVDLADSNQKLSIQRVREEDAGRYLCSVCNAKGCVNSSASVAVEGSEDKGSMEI
# What was measured:
# ACHN cells [1] = test: RT-qPCR of VEGF and VEGF222/NF in ACHN cells transduced with shRNA; format: cell-based
# Description: (§1) For these constructs, the C-terminal V5-tag was not in frame. To generate lentiviral shRNA plasmids, pLKO.1-TRC cloning vector, a kind gift from David Roots, has been used. pLKO.1-TRC contains a 1.9 kb stuffer released by Agel and EcoRI digestion. shRNA oligos were annealed and ligated into the Agel and EcoRI sites in place of the stuffer. The following shRNA sequences were used: shScramble: 5′-[…]-3′ (SEQ ID NO: 26); shVEGF #1: 5′-[…]-3′ (SEQ ID NO: 27) shVEGF #2: 5′-[…]-3′ (SEQ ID NO: 28); shVEGFNF #1: 5′-[…]-3′ (SEQ ID NO: 29); shVEGFNF #2: 5′-[…]-3′(SEQ ID NO: 30); shNRP1: 5′-[…]-3′(SE ID NO: 31); shNRP2: 5′-[…]-3 (SEQ ID NO: 32)′. All plasmids were verified by Sanger sequencing (Eurofins Genomics).
# (§2) Lentivirus were produced by triple transfection of HEK-293T cells with a lentiviral transfer vector (pLenti6.3 for overexpression experiments and pLKO.1 for shRNA experiments), and the packaging plasmids psPAX2 and pMD2.G at a 0.3:0.3:0.1 ratio. Transfection was performed using JetPEI® reagent as recommended by the manufacturer Polyplus transfection. The viral supernatant was collected 48 hours following transfection, filtered through a 0.22 μm filter, and added to target cells.
# (§3) RT-PCR and RT-qPCR analyses were carried out on human tissue mRNA (BIOCHAIN®) and on cancer cell lines. mRNAs were prepared with a Nucleospin RNA kit (Macherey-Nagel), and cDNA synthesis was performed with a Maxima First Strand CDNA Synthesis Kit for RT-qPCR, with dsDNase (Fischer scientific), according to the manufacturers' instructions.
# (§4) PCR analysis was performed on Biometra thermal cycler with PrimeSTAR GXL DNA polymerase (Takara Bio). Quantitative PCR analysis was performed on Applied Biosystems StepOnePlus™ System with TB Green® premix Ex Taq™ (Tli RNase H Plus) (Takara Bio) reagents. All samples were assayed in triplicate. Relative expression levels were determined with the dCt method and normalized to the 36B4 reference gene.
# 786-O cells = test: RT-qPCR of VEGF and VEGF222/NF in 786-O cells transduced with shRNA; format: cell-based
# Description: as §1, §2, §3, §4
# metastatic ccRCC = test: PFS and OS of metastatic (M1) ccRCC patients treated by sunitinib, grouped by plasma VEGF222/NF; format: in vivo, human
# Protocol: Informed consent was obtained from all individual participants included in the study. All patients gave written consent for the use of tumor and blood samples for research. This study was conducted in accordance with the Declaration of Helsinki. Primary tumor samples of 93 non-metastatic (M0) ccRCC patients were obtained from the Rennes and Bordeaux University Hospitals (UroCCR group, NCT03293563). For metastatic patients, the population of the study included 47 ccRCC patients from the prospective SUVEGIL (NCT00943839) and TORAVA (NCT00619268) trials and from a retrospective cohort from Pavia (Italy).
# Informed consent was obtained from all individual participants included in the study. All patients gave written consent for the use of tumor and blood samples for research. This study was conducted in accordance with the Declaration of Helsinki. Primary tumor samples of 93 non-metastatic (M0) ccRCC patients were obtained from the Rennes and Bordeaux University Hospitals (UroCCR group, NCT03293563). For metastatic patients, the population of the study included 47 ccRCC patients from the prospective SUVEGIL (NCT00943839) and TORAVA (NCT00619268) trials and from a retrospective cohort from Pavia (Italy). Metastatic patients received oral sunitinib (50 mg per day) once a day for 4 weeks (on days 1 to 28), followed by 2 weeks of treatment interruption. Sunitinib was continued in the absence of disease progression or unacceptable toxicity. Blood samples were collected before the beginning of the treatment (TO). Blood samples were centrifuged (10 000 g for 10 min) and the plasmas were collected and conserved at −80° C. Plasmatic levels of VEGF and VEGF222/NF were determined by ELISA as described in the ELISA method details section. PFS and OS were calculated from patient subgroups with VEGFA or VEGF222/NF plasmatic levels that were less or greater than the third quartile value.
# Statistical analysis was carried out using GraphPad Prism 8. Data were expressed as mean±SEM and were compared using an unpaired Mann-Whitney test for intergroup analysis. For patients: The Student's t-test was used to compare continuous variables and chi-square test, or Fisher's exact test (when the conditions for use of the χ2-test were not fulfilled), were used for categorical variables. DFS was defined as the time from surgery to the appearance of metastasis. PFS was defined as the time between surgery and progression, or death from any cause, censoring live patients and progression free at the last follow-up. OS was defined as the time between surgery and the date of death from any cause, censoring those alive at the last follow-up. The Kaplan-Meier method was used to produce survival curves and analyses of censored data were performed using Cox models. Significance was defined as P<0.05.
# The detrimental effects of VEGF222/NF in immunodeficient mice and zebrafish models prompted us to analyze the prognostic impact of its plasmatic levels in comparison to plasmatic VEGF level on a cohort of 47 metastatic (M1) ccRCC patients treated by sunitinib. The third quartile was used as the cut-off to determine patients' groups, respectively 4500 […] for VEGF and VEGF222/NF. […] However, patients with high plasmatic levels of both VEGF222/NF and VEGF had the shortest PFS (FIG. 14). […] Whereas VEGF was not associated with a significant effect on OS, high expression of VEGF222/NF WAS synonymous of a shorter overall survival (OS) in M1 patients (FIGS. 13C,D).
# [2] = In vivo […] plug assay (hemoglobin content); parameters: species or system mice; settings: 200 ng in 200 μL MATRIGEL, two weeks
# Protocol: A″) VEGF222/NF induces phosphorylation of VEGFR2 and activation of the downstream signaling pathways AKT and ERK. […] Cells were washed with PBS and lyzed with Laemmli buffer. Immuno blots were performed with the indicated antibodies. […] Cells were counted for 7 days. […] D) Wound closure was determined at 3 h, 6 h, 9 h and 12 h following treatment. E) In vitro permeability assay. […] Streptavidin-HRP was then added to the transwell for 10 minutes and TMB substrate was added in the lower compartment to assess permeability. F) In vivo permeability assay. […] After 20 minutes, ears were recovered, and the amount of Evans blue was determined by colorimetry (top panel). […] G) In vivo plug assay. […] Representative photographs of the […]® plug 15 days after implantation (bottom panel).
# 6-weeks old female NMRI mice (n=15) were used for this experiment. […] […]® plugs were recovered after two weeks for hemoglobin quantity analysis. Plugs hemoglobin content was assessed with the hemoglobin assay kit (Sigma Aldrich) and experiments were conducted according to the manufacturer recommendations. Results are expressed in micrograms of hemoglobin per milligram of […]®.
# ACHN cells [3] = test: Proliferation of ACHN cells overexpressing VEGF165 or VEGF222/NF; format: cell-based; settings: overexpression in ACHN cells, versus LacZ
# Protocol: FIG. 6. VEGF222/NF promotes the proliferation and the survival of RCC cells. […] Cells were counted for 7 days. ***P<0.001 vs LacZ. D-E) RT-qPCR analysis of the expression of VEGF222/NF and VEGF in ACHN (D) and in 786-O (E) cells transduced with pLKO.1 expressing shVEGF165 or shVEGF222/NF. *P<0.05. **P<0.01, ***P<0.001 vs Scramble.
# For endothelial cell proliferation assays, TIME or HDLECs cells (50.000 and 25.000, respectively) were seeded in 6-well plates in Endothelial Cell Growth Medium (Promocell) containing 0.5% FBS. […] Results were expressed as fold increase considering day 0 as the reference. For ACHN proliferation, ACHN-LacZ, ACHN-VEGF165, ACHN-VEGF222/NF cells were seeded (20.000) in 6-well plates in DMEM medium containing 0.5% FBS. Cells were counted at day 0, 1, 3, 5 and 7. Results are expressed as fold increase considering day 0 as the reference.
# VEGFR1 = target: T2, VEGFR1 (UniProt P17948 27-756, limits assumed); test: saturation binding experiment
# T2 construct: also called VEGFR1/Flt1
# T2 sequence (P17948 27-756 limits assumed): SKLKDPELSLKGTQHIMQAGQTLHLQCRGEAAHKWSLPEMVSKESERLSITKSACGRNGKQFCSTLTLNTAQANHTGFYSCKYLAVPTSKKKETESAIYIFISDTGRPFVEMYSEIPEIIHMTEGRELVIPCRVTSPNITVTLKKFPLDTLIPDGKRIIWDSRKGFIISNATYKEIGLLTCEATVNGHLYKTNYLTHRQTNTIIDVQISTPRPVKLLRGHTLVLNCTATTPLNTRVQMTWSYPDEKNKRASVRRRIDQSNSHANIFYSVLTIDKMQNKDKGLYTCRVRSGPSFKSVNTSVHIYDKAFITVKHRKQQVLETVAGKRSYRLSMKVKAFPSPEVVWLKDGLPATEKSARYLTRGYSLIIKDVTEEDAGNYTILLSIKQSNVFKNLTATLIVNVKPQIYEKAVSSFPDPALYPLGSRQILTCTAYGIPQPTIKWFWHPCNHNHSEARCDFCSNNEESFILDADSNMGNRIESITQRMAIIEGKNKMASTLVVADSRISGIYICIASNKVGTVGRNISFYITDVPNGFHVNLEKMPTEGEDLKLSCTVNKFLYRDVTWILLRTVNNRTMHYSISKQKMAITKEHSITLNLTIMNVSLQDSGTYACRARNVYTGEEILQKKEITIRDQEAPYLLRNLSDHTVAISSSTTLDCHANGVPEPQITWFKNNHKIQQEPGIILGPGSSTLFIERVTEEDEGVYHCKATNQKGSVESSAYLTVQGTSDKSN
# VEGFR3 = target: T1, VEGFR3; test: saturation binding experiment
# VEGFR2 = target: T3, VEGFR2 (UniProt P35968 20-764, limits assumed); test: saturation binding experiment
# T3 construct: also called VEGFR2/KDR
# T3 sequence (P35968 20-764 limits assumed): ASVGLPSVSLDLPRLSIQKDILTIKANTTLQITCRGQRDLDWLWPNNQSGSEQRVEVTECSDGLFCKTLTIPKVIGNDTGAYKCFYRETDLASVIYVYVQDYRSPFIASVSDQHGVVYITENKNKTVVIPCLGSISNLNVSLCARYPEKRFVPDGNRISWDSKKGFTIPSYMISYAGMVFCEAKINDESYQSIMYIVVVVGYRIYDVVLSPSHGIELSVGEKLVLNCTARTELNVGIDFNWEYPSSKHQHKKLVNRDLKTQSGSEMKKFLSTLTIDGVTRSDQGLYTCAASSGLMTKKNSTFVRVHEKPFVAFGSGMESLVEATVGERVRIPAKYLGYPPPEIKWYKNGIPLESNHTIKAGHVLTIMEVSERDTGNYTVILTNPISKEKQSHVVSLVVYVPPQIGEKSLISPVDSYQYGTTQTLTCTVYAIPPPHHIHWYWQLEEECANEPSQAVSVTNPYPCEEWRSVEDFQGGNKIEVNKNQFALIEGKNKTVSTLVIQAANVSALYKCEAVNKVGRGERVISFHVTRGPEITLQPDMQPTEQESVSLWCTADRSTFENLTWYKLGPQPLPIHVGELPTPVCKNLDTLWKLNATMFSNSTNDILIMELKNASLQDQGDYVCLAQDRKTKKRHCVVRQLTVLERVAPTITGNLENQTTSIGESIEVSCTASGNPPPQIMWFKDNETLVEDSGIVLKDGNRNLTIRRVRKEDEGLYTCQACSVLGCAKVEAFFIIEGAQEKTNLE
# [4] = ACHN cells, pLKO.1 lentiviral transduction
# [5] = 786-O cells, pLKO.1 lentiviral transduction
molecule,measurement,setting,value
5′-AGGGCAGAATCATCACGAAGT-3′ (expressed or natural sequence) [shRNA #2],expression of the respective target (VEGF or VEGF222/NF),ACHN cells [1]; [4],downregulated the expression of their respective targets
same,expression of the respective target (VEGF or VEGF222/NF),786-O cells; [5],downregulated the expression of their respective targets
5′-CATITCCCTCAGATGTGACAA-3′ (CATTTCCCTCAGATGTGACAA; chemistry not given here) [shRNA NF #2],expression of the respective target (VEGF or VEGF222/NF),ACHN cells [1],downregulated the expression of their respective targets
same,expression of the respective target (VEGF or VEGF222/NF),786-O cells,downregulated the expression of their respective targets
5′-GCCTTTGTITTCCATTTCC-3′ (GCCTTTGTTTTCCATTTCC; chemistry not given here) [shRNA NF #1],expression of the respective target (VEGF or VEGF222/NF),ACHN cells [1],downregulated the expression of their respective targets
same,expression of the respective target (VEGF or VEGF222/NF),786-O cells,downregulated the expression of their respective targets
5′-GCGCAAGAAATCCCGGTATAA-3′ (expressed or natural sequence) [shRNA #1],expression of the respective target (VEGF or VEGF222/NF),ACHN cells [1]; [4],downregulated the expression of their respective targets
same,expression of the respective target (VEGF or VEGF222/NF),786-O cells; [5],downregulated the expression of their respective targets
CCN(CC)CCNC(=O)c1c(C)[nH]c(/C=C2\C(=O)Nc3ccc(F)cc32)c1C [sunitinib],Death %,metastatic ccRCC; High VEGF222/NF,83%
same,OS (months),metastatic ccRCC; High VEGF222/NF,13 months
same,PFS (months),metastatic ccRCC; High VEGF222/NF,5 months
same,progression %,metastatic ccRCC; High VEGF222/NF,83%
same,Death %,metastatic ccRCC; Low VEGF222/NF,68%
same,OS (months),metastatic ccRCC; Low VEGF222/NF,37 months
same,PFS (months),metastatic ccRCC; Low VEGF222/NF,15 months
same,progression %,metastatic ccRCC; Low VEGF222/NF,76%
same,Death %,metastatic ccRCC; Total,75%
same,OS (months),metastatic ccRCC; Total,33 months
same,progression %,metastatic ccRCC; Total,82%
same,PFS (months),"metastatic ccRCC; Total, 47 M1 ccRCC patients",12 months
"VEGF165: conventional pro-angiogenic VEGF isoform, recombinant, used as comparator (protein) APMAEGGGQNHHEVVKFMDVYQRSYCHPIETLVDIFQEYPDEIEYIFKPSCVPLMRCGGCCNDEGLECVPTEESNITMQIMRIKPHQGQHIGEMSFLQHNKCECRPKKDRARQENPCGPCSERRKHLFVQDPQTCKCSCKNTDSRCKARQLELNERTCRCDKPRR",reddish aspect and hemoglobin content of plugs,[2],equivalent
same,ACHN cell proliferation,ACHN cells [3],stimulated ACHN cell proliferation
"recombinant VEGF222/NF protein produced in HEK293 cells by ProteoGenix (ligand, also called VEGF222 New Form; rVEGF222/NF) GSHHHHHHSGLEVLFQGPAPMAEGGGQNHHEVVKFMDVYQRSYCHPIETLVDIFQEYPDEIEYIFKPSCVPLMRCGGCCNDEGLECVPTEESNITMQIMRIKPHQGQHIGEMSFLQHNKCECRPKKDRARQENPCGPCSERRKHLFVQDPQTCKCSCKNTDSRCKARQLELNERTCSLCFPFPSDVTSRGGEPGRRKEPPSGFREPDLSPGKTDTERSIQKPRCRHHTITIDRTVLNPET",Kd,VEGFR1,1.12 nM
same,Kd,VEGFR3,10.4 nM
same,Kd,VEGFR2,0.73 nM
